Reference: patent US8153647B2, “Aryl- and heteroaryl-ethyl-acylguanidine derivatives, their preparation and their application in therapeutics” (Sanofi-Aventis, priority 2006, dated 2012)
Where a name gives a salt, the structure may show the parent alone.

Columns and labels:
[1] = biological target: T1, Recombinant human renin (Homo sapiens, UniProt P00797); assay: Renin inhibition in a purified system (FRET, synthetic substrate Dabcyl-gaba-IHPFHLVIHT-EDANS); type: biochemical; conditions: renin 10 nM, substrate 10 μM, 2 h, room temperature, pH 8
T1 construct: made in house; host or cells: Chinese Hamster Ovary (CHO) cells
T1 sequence (P00797 67-406): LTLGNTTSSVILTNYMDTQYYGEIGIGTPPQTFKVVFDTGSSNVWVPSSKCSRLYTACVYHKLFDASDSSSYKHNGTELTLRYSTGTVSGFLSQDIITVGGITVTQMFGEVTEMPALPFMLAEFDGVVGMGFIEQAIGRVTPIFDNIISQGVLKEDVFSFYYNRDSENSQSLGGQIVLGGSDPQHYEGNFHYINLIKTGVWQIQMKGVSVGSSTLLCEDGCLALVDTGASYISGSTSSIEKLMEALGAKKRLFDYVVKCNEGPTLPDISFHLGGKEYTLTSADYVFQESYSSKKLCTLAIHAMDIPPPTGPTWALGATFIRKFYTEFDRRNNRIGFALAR
Method: The protocol for the determination in a purified system of the in vitro IC50s of the compounds of the invention is described hereafter.
Recombinant human renin (expressed as prorenin in Chinese Hamster Ovary and purified after activation in active renin using standard methods) at 10 nM concentration is incubated with test compounds at various concentrations and the synthetic substrate Dabcyl-gaba-IHPFHLVIHT-EDANS (Bachem) at 10 μM for 2 h at room temperature, in 0.05 M Tris buffer pH 8 containing 0.1 M NaCl, 2.5 mM EDTA and 1.25 mg/ml bovine serum albumin. Increase in fluorescence (due to the Fluorescence Resonance Energy Transfer) is recorded at an excitation wave-length of 330 nm and at an emission wave length of 485 nm in a microplate spectrofluorometer. IC50 values are calculated from the percentage of inhibition of renin activity as a function of test compound concentration.

Compound	melting point	IC50 [1]
COCCCOc1cc(CCC(=O)NC2=NC(=O)C(C)(C)CN2)ccc1-c1ccc(CN2CCC(N(C)C)CC2)cc1.Cl	132 °C	
CCCCNC(=N)NC(=O)CCc1ccc(-c2ccc(CN3CCN(CC(=O)N(C)C)CC3)cc2)c(OCCCOC)c1 [Compound 30]		70 nM
COCCCOc1cc(CCC(=O)NC(=N)N)ccc1-c1ccc(CN2CCCCC2)cc1 [Compound 13, N-[amino(imino)methyl]-3-[2-(3-methoxypropoxy)-4′-(piperidin-1-ylmethyl)biphenyl-4-yl]propanamide hydrochloride]		79 nM
CCCCNC(=N)NC(=O)CCc1ccc(-c2ccc(CNCC(c3ccccc3)N(C)C)cc2)c(OCCCOC)c1 (stereo not shown) [Compound 48, N-butyl-N′-{3-[4′-[(2-dimethylamino-2-phenyl-ethylamino)-methyl]-2-(3-methoxy-propoxy)-biphenyl-4-yl]-propionyl}-guanidine, trifluoro-acetic acid salt]		143 nM
COCCCOc1cc(CCC(=O)NC(=N)N)ccc1-c1ccc(CN2CCN(C)CC2=O)cc1 (as salt: HCl) [Compound 78]	61.5 °C	
CCCNC(=N)NC(=O)CC(C)(C)c1ccc(-c2ccc(C(=O)N3CCN(C)CC3)cc2)c(OCCCOC)c1 [Compound 25, N-[imino(propylamino)methyl]-3-{2-(3-methoxypropoxy)-4′-[(4-methylpiperazin-1-yl)carbonyl]biphenyl-4-yl}-3-methylbutanamide hydrochloride]		228 nM
COCCCOc1cc(C(C)(C)CC(=O)NC(=N)N)ccc1-c1ccc(CN2CCC(N(C)C)CC2)cc1 (as salt: HCl) [Compound 22]	105.5 °C	
COCCCOc1cc(CCC(=O)NC(=N)NCCc2ccccn2)ccc1-c1ccc(CN2CCC(N(C)C)CC2)cc1 [Compound 6]		100 nM
COCCCOc1cc(CCC(=O)NC(=N)N)ccc1-c1ccc(CN2CCN(C)C2=O)cc1 [Compound 173]		53 nM
CNC(=N)NC(=O)CCc1ccc(-c2cccc(N(C)C(=O)N3CCOCC3)c2)c(OCCCOC)c1.Cl	54 to 55 °C	
COCCCOc1cc(CCC(=O)NC(=N)N)ccc1-c1nccs1 [Compound 157]		126 nM
COCCCOc1cc(CCC(=O)NC(=N)NCCc2ccccn2)ccc1-c1ccc(CN2CCC(N(C)C)CC2)cc1 (as salt: HCl) [Compound 6]	128 °C	
COCCCOc1cc(CCC(=O)NC(=N)N)ccc1-c1cccnc1 [Compound 21, hydrochloride]		98 nM

Further lines, results first:

melting point	IC50 [1]	Compound
	23 nM	COCCCOc1cc(CCC(=O)NC(=N)NCCC(C)C)ccc1-c1ccc(CN2CCC(N(C)C)CC2)cc1 [Compound 11]
	48 nM	CNC(=N)NC(=O)CCc1ccc(-c2ccc(Cl)c(CS(=O)(=O)C(C)(C)C)c2)c(OCCCOC)c1 [Compound 194, 3-{3′-[(tert-butylsulfonyl)methyl]-4′-chloro-2-(3-methoxypropoxy)biphenyl-4-yl}-N-(methylcarbamimidoyl)propanamide hydrochloride]
	19 nM	COCCCOc1cc(CCC(=O)NC(=N)N)ccc1-c1cccc(CN2CCCCC2=O)c1 [Compound 179]
	19 nM	COCCCOc1cc(CCC(=O)NC(=N)N)ccc1-c1ccc(CN2CCC(N(C)C)CC2)cc1 [Compound 2, N-[amino(imino)methyl]-3-[4′-{[4-(dimethylamino)piperidin-1-yl]methyl}-2-(3-methoxypropoxy)biphenyl-4-yl]propanamide hydrochloride]
	10 nM	COCCCOc1cc(C(C)(C)CC(=O)NC(=N)N)ccc1-c1ccc(CN2CCC(N(C)C)CC2)cc1 [Compound 22]
	42 nM	COCCCOc1cc(CCC(=O)NC(=N)N)ccc1-c1ccc(CN2CCN(C)CC2=O)cc1 [Compound 78]
